From patent EP1637163A1, “Indicator of therapeutic compliance” (priority 2004, dated 2006)

What was measured:
[1] = Blood test after ingestion of labelled substance (isotope content by mass spectrometry, δ-values); assay type: in vivo, human
Procedure: (§1) As a first step to test the feasibility of this approach, a self-experiment was conducted by the inventors. The aim was to obtain first data on the effect size, the pharmacokinetic data in various body fluids, and the variability between subjects. Single, large doses of the following substances were ingested by the subjects: ^13C6-glucose (1 g, two subjects) ^15N-L-leucine (1 g, two subjects) ^15N3-L-arginine (250 mg, one subject) ^15N4-L-histidine (250 mg, one subject) Baseline and follow-up samples were taken from the following body fluids: blood, saliva, and urine. These samples were dried, milled, burned, and analysed by mass spectrometry. […] Samples of exhaled breath were taken until 3 days after ingestion and analysed by IR-spectroscopy for ^13C/^12C-ratios.
Blood: Appr. 4 ml of venous blood were drawn and given into a thoroughly cleaned glass vial. The sample was frozen immediately at -18°C and stored at this temperature. Saliva: Saliva samples were obtained by letting the volunteers chew on "salivettes", i. e., cotton swabs, which were then centrifuged to extract saliva. The saliva samples were frozen at -18°C and stored at this temperature. Urine: Urine was given into glass vials and frozen and stored at -18°C. All samples were freezedried in vacuo at -70°C, and an appropriate amount of the resulting powder was given into Supremax glass tubes, together with an appropriate amount of copper oxide, evacuated, and sealed.
(§2) The isotopic composition was measured and compared to a standard. […] Samples of exhaled breath were taken until 3 days after ingestion and analysed by IR-spectroscopy for ^13C/^12C-ratios.

[2] = Saliva test after ingestion of labelled substance (isotope content by mass spectrometry, δ-values); assay type: in vivo, human
Procedure: as §1
(§3) Blood: Appr. 4 ml of venous blood were drawn and given into a thoroughly cleaned glass vial. The sample was frozen immediately at -18°C and stored at this temperature. Saliva: Saliva samples were obtained by letting the volunteers chew on "salivettes", i. e., cotton swabs, which were then centrifuged to extract saliva. The saliva samples were frozen at -18°C and stored at this temperature. […]
as §2

[3] = design: species or system human; conditions: in vivo
Procedure: as §1, §3, §2

[4] = design: species or system human; conditions: in vivo; remark: listed apart in the source
Procedure: As a first step to test the feasibility of this approach, a self-experiment was conducted by the inventors. The aim was to obtain first data on the effect size, the pharmacokinetic data in various body fluids, and the variability between subjects. Single, large doses of the following substances were ingested by the subjects: ^13C6-glucose (1 g, two subjects) ^15N-L-leucine (1 g, two subjects) ^15N3-L-arginine (250 mg, one subject) ^15N4-L-histidine (250 mg, one subject) Baseline and follow-up samples were taken from the following body fluids: blood, saliva, and urine. These samples were dried, milled, burned, and analysed by mass spectrometry. The results are given as δ-values, which are defined as follows: [formula] where rsample is the ratio of ^15N [^13C] over ^14N [[…]] in the sample, and rstandard is the ratio of ^15N [^13C] over ^14N [[…]] in a standard. Samples of exhaled breath were taken until 3 days after ingestion and analysed by IR-spectroscopy for ^13C/^12C-ratios. Glucose and leucine were ingested on day zero, while arginine and histidine were ingested on day 116.
Gas of the sample tubes was separated by freezing at -196°C (N2) and - 78°C(CO2), and let into a mass spectrometer (Finnigan Delta +XL) according to manufacturer's specifications. The isotopic composition was measured and compared to a standard. Results are given as δ-values, which are defined as follows: [formula] where rsample is the ratio of ^15N [^13C] over ^14N [[…]] in the sample, and rstandard is the ratio of ^15N [^13C] over ^14N [^13C] in a standard. Samples of exhaled breath were taken until 3 days after ingestion and analysed by IR-spectroscopy for ^13C/^12C-ratios. Glucose and leucine were ingested on day zero, while arginine and histidine were ingested on day 116.

Structure (SMILES) | remaining effect size ([1]; blood, after about 50 hours after ingestion, disturbed by large variations) | marked increase in ^13C-content (time after ingestion) ([1]; in vivo) | rapid decrease of ^13C-content until (time after ingestion) ([1]; in vivo) | effect size in saliva samples ([2]; saliva, single 1 g dose ingested, two subjects, relatively large variation) | relative amount of ^13C in urine: drop to normal levels [3] | period over which measurements of ^13CO2 in expired breath are sensitive [4] | period over which the relative content of ^13C (DOB = delta over baseline) rises [4] | relative content of ^13C returns to baseline values [4] | period after which δ-values in saliva are similar to urine-values ([2]; in vivo) | δ-^15N-values of urine: time after which the figure slowly returns to baseline values [3]
O[13CH2][13C@H]1O[13CH](O)[13C@H](O)[13C@@H](O)[13C@@H]1O (stereo partly shown) [^13C6-glucose] | small | approximately 6 hours | about 50 hours | no significant effect size | ≤ 5 days | 1 to 2 days | 1 to 3 h | 36 to 48 h |  | 
CC(C)C[C@H]([15NH2])C(=O)O [^15N-L-leucine] |  |  |  |  |  |  |  |  | ca. 1 week | approximately 5 days
